From patent US20170209373A1, “MULTIFUNCTIONAL POLYMERIC NANOPARTICLE FOR DIAGNOSIS OR TREATMENT OF CEREBRAL DISEASES AND A PREPARATION METHOD THEREOF” (KOREA INSTITUTE OF SCIENCE AND TECHNOLOGY, priority 2016, published 2017)

System: luciferase-expressing U-87 MG cells
Assay: Cancer treating effect in brain tumor model (bioluminescence signals)
Format: in vivo, mouse
Method: The NP-cur aqueous dispersion prepared according to Example 1-1 was intravenously injected daily at a dose of 200 μL from day 3 of the transplantation of the cancer cells in the brain tumor model prepared according to Example 3-1. […] For the control groups to which the drug was not administered, a group (control of FIG. 11) to which the F-127 aqueous solution was intravenously injected daily for 3 weeks at a dose of 200 μL, and a group (free curcumin of FIG. 11) to which curcumin which was not loaded in the polymeric nanoparticles but was dissolved in an organic solvent, dimethyl sulfoxide (DMSO, Daejung Chemicals & Metals Co., LTD., Korea), was intraperitoneally injected at a dosage of 360 mg/kg daily for 3 weeks was selected to observe the bioluminescence signals in the same manner as in the NP-cur administration experimental group. Finally, the bioluminescence signals observed in the two control groups and experimental group and the results of comparative analysis thereof are shown in FIG. 11.

## COc1cc(/C=C/C(=O)CC(=O)/C=C/c2ccc(O)c(OC)c2)ccc1O [curcumin]
NP-cur 0.2 mg/kg/d i.v., curcumin solution 360 mg/kg/d i.p.
  effect on tumor growth: only slightly slowed
NP-cur 200 μL i.v. daily (0.2 mg/kg/d curcumin), free curcumin in DMSO i.p. 360 mg/kg daily for 3 weeks
  bioluminescence intensity of brain tumor over time (days 7, 14, 21): still showed a large signal increase
